Assay results taken from EP3067058A1, “BIOLOGICAL COMPOSITION BASED ON ENGINEERED LACTOBACILLUS PARACASEI SUBSP. PARACASEI F19 FOR THE BIOSYNTHESIS OF CANNABINOIDS” (Farmagens Health Care Srl, priority 2015, dated 2016).

Tests used:
Bax = assay: Immunoblot of pro-apoptotic Bax protein in Caco-2 cells; type: cell-based, human; conditions: 96 hrs incubation; 10^11 cfu; caproic acid 0.003-0.3µg/ml
Procedure: (§1) Caco-2 cell colture. Caco-2 cells were cultured in Dulbecco's Modified Eagle's Medium (DMEM) supplemented with 5% Foetal Bovine Serum (FBS), 2 mM glutamine, 100 U/mL penicillin, 100 µg/mL streptomycin at 37 °C in 5% CO2/95% air. At confluence cells were washed three times with Phosphate Buffer Saline (PBS), detached with tripsyn/EDTA, plated in 10 cm diameter Petri dishes and left to adhere for 24 hrs. Thereafter, DMEM was replaced with fresh medium and cells were treated for 96 hrs with 10^11 cfu LP OAC-CAS-OLS-CsPT1^+, with caproic acid 0.003-0.3µg/ml or LP empty vector with caproic acid 0.003-0.3µg/ml.
The pro-apoptotic effect in Caco-2 cell cultured in the presence of LP OAC-CAS-OLS-CsPT1+ or LP empty vector was tested by immunoblot analysis of pro-apoptotic proteins level (Bax), as well as by rate of cells proliferation (MTT).
Immunoblot of Bax protein. Briefly, after homogenization in ice-cold hypotonic lysis buffer, protein concentration was determined using Bio-Rad protein assay kit (Bio-Rad, Milan, Italy). Analysis of Bax and β-actin protein expression was performed on total protein fractions of homogenates. Equivalent amounts (30 µg) of each homogenate underwent electrophoresis through a polyacrilamide minigel. […] Protein bands were then scanned and densitometrically analyzed with a GS-700 imaging densitometer.

Caco-2 cells = assay: MTT proliferation assay in human colon carcinoma cells; type: cell-based; conditions: 96 hrs incubation; 10^11 cfu; caproic acid 0.003-0.3µg/ml
Procedure: To confirm the chemo-preventive action of cannabidiol in the experimental conditions, a study on the putative pro-apoptotic and anticancer activity exerted by LP OAC-CAS-OLS-CsPT1+ probiotic was tested in vitro in human colon carcinoma cells. CBD release in human colon carcinoma cell line was measured at the different time points.
as §1, with “Thereafter, DMEM was replaced with fresh medium and cells were treated for 96 hrs with 10^11 cfu LP OAC-CAS-OLS-CsPT1^+, with caproic acid 0.003-0.3µg/ml or LP empty vector with caproic acid 0.003-0.3µg/ml.” left out
MTT Proliferation and survival assays. Cell proliferation was evaluated by 3-[4,5-dimethylthiazol-2-yl]-2,5 diphenyltetrazolium bromide (MTT) assay. […] After this time point, the cells were lysed and the dark blue crystals solubilized with 125 µl of a solution containing 50% (N,N-dimethylformamide, 20% (w/v) sodium dodecylsulphate (pH 4.5). The optical density (OD) of each well was measured with a Perkin-Elmer (Waltham, MA, USA) microplate spectrophotometer equipped with a 620 nm filter. Cell viability in response to pentamidine was calculated as % cell viability (OD treated/OC control) X 100.

[1] = smoking; cited from earlier work

SMILES	expression level of the pro-apoptotic protein Bax-2 (Bax)	cell proliferation (MTT) (Caco-2 cells)	Δ^9-THC content in a cannabis cigarette that is absorbed [1]
CCCCCC(=O)O [caproic acid]	no significant effect	no significant effect	
CCCCCc1cc(O)c2c(c1)OC(C)(C)[C@@H]1CCC(C)=C[C@@H]21 [Δ^9-THC, (-)-trans-Δ9-tetrahydrocannabinol]			about 20%
